Usually AUC(0-t) stands for the area under the concentration-time curve up to a stated or last time point.

Experimental findings from patent publication US10676440B2, “Crystalline forms of an NK-1 antagonist” (Helsinn Healthcare SA, priority 2014, dated 2020) are described below.

Data set [1] in a line: in vivo. Conditions: male, dog, in vivo, iv, 3 mg/kg, mean AUC(0-102 h). How it is done:
In Example 10, the pharmacokinetics of the compound of Formula I in dogs following single intravenous and oral administration was evaluated and the oral bioavailability of five different salts of the compound of Formula I was compared. The compound of Formula I was administered to dogs as described in Table 12. The doses are expressed in mg of free base.
The experiments were performed in 15 male dogs (bodyweight 11-18 kg) from RCC Ltd., Biotechnology and Animal Breeding Division, Wolferstrasse 4, CH-4414, Fullinsdorf, Switzerland. The animals were housed under standard laboratory conditions throughout the study period.
For the pharmacokinetic studies, 1 mL blood samples were collected from the cephalic vein of the dogs via catheter at 15, 30 min and at 1, 2, 3, 4, 6, 8, 24, 32, 48, 56, 72, 80, 96, and 100 (or 104) hours following oral dosing. After intravenous administration, blood samples were collected at 5, 15, 30 min and 1, 2, 3, 4, 6, 8, 24, 32, 48, 56, 75, 102, 120, 128, 144, 152, 168, 176, 192, and 200 hours. Collection tubes contained EDTA/NaF as anticoagulant and stabilizer. After centrifugation, plasma was removed and stored deep frozen at approximately −20° C. until analysis using a specific LC-MS method.
Aliquots of 40 μL plasma were mixed with 50 μL buffer at pH 5, 50 μL internal standard of Formula I (1 μg/mL in 1-chlorobutane) and 250 μL butylacetate and then shaken for 10 min. After centrifugation, 200 μL of the supernatant were evaporated to dryness at 45° C. under a stream of nitrogen. The residue was reconstituted with 200 μL acetonitrile/1% formic acid in water (30/70, v/v). Aliquots of 30 μL were injected onto the analytical column (Waters, Symmetry C8, 2.1×150 mm, 5 μm).
Separation occurred by gradient elution using a solvent A (acetonitrile) and solvent B (1% formic acid in water). The flow rate was 0.3 mL/min and the gradient elution was: […]
The sample passed to the ion-spray interface of the single quadrupole mass spectrometer. Selected ion monitoring mode (SIM) was used for mass spectrometric detection. Quantification was based on peak area ratios and calibration curve established between 2 and 5000 ng/mL.
To a 100 μL sample aliquot were added 200 μL of a mixture of acetonitrile/ethanol containing the deuterated internal standard, to precipitate plasma proteins. After vortex mixing and centrifugation, aliquots of the supernatants were transferred to 96-deel-well plates and injected for analysis (5 μL). Following enrichment and cleanup on the trapping column, the analyte was eluted and separated by gradient elution on a 2.1*30 mm analytical column (XTerra MS C18). The effluent from the analytical column was passed to the turbo ion spray vie a divert valve.
Calibration standards were prepared in dog plasma. The calibration range was from 10-5000 ng/mL. In each analytical series, a set of calibration standards was worked up and run with the unknowns. Calibration was then performed by computing a weighted (1/X^2) least-squares linear regression line of the measured peak area ratios (Y) (analyte to internal standard) versus the spiked concentrations (X). The drug concentrations of the unknown samples were then calculated from this regression line (UNICHROM). The performance of the analytical procedure during sample analysis was monitored. With each analytical series, quality control (QC) samples in dog plasma, spiked with known amounts of the analyte, were run together with the study samples.
The pharmacokinetic parameters were estimated by non-compartmental analysis, using the pharmacokinetic evaluation program WinNOnlin [1]. AUC(0-inf.) was calculated applying the linear trapezoidal rule and extrapolation to infinity using the apparent elimination rate constant kz and the calculated concentration at the last measurable time point. AUClast values were calculated by linear trapezoidal rule from time zero to time of last measureable time point.

Data set [2] can be described thus: Brain and CSF penetration after intravenous administration in rats. The format is in vivo. Conditions: male, RoRo Fuellinsdorf, rat, brain homogenate / plasma, i.v., approximately 0.25, 0.5, 1 and 2 h, read-out: ratios of brain homogenate/plasma concentrations. How it is done:
After centrifugation, plasma was removed.
The frozen half brain was weighed. After thawing, the tissue was suspended in a 2 mL eppendorf polypropylene tube with 2 volumes of sterile apyrogen and cold NaCl (+4° C.; 0.9% solution) (0.333 g brain/mL NaCl). The tissue was homogenized (ice bath) using a Vibra-Cell ultrasonic processor (Sonics & Material, Inc. Danbury, CT-USA) for 2×10 s (amplitude: 60, energy: 25). An aliquot of the resulting brain homogenate (40 μL) was used for extraction as described for plasma. 50 μL CSF with 50 μL plasma were used for extraction as described under plasma sample preparation.
Brains were taken at approximately 0.25, 0.5, 1 and 2 h after intravenous administration of Formula I into the tail vein of 8 rats (2 rats per time point). For all time points, the concentrations were higher in the brain than in the plasma, with ratios of brain homogenate/plasma concentrations of 2.4 to 4.9. The CSF was taken at the same time points and analyzed but the concentrations were low (4.9 to 16 ng/mL or below 4 ng/mL), possibly due to the high plasma protein binding.

For data set [3], the system named is rat plasma proteins. Briefly: Binding to rat plasma proteins. The class given is in vitro ADME.
The nature of data set [4]: Pilot whole body autoradiography study in rats. The class given is in vivo.

In data set [1], `Cc1ccccc1-c1cc(N2CCN(C)CC2)ncc1N(C)C(=O)C(C)(C)c1cc(C(F)(F)F)cc(C(F)(F)F)c1` [Formula I, 2-(3,5-bis(trifluoromethyl)phenyl)-N,2-dimethyl-N-(6-(4-methylpiperazin-1-yl)-4-(o-tolyl)pyridin-3-yl)propanamide] returned an AUC(0-t) of 11800 ng·h/mL. Further, the Kp in data set [2] fell in the range of 2.4 to 4.9. Besides, in data set [3], the “binding to rat plasma proteins” value came to 99.8%. The “distribution and elimination of the labeled compound and/or metabolites” value in data set [4] was “extensive distribution of the labeled compound and/or metabolites as well as a very slow elimination from the body”.
